Results reported in US20060241145A1, “Piperidine derivative crystal, process for producing the same, and use” (priority 2005, published 2006).
Where a name gives a salt, the structure may show the parent alone. Each block holds one molecule with its values, some of them ahead of it.

Legend:
[1] = molecular target: T1, substance P receptor (Homo sapiens, UniProt P25103); experiment: Radioligand receptor binding inhibitory activity (binding inhibitory activity using receptor from human lymphoblast cells (IM-9)); conditions: 125I-BHSP (substance P labeled with [125I]), receptor from IM-9 cells, 25° C. 30 min
T1 construct: The receptors were prepared from human lymphoblast cells (IM-9); endogenous in cells; host or cells: IM-9 human lymphoblast cells (membrane preparation)
T1 sequence (P25103 whole entry): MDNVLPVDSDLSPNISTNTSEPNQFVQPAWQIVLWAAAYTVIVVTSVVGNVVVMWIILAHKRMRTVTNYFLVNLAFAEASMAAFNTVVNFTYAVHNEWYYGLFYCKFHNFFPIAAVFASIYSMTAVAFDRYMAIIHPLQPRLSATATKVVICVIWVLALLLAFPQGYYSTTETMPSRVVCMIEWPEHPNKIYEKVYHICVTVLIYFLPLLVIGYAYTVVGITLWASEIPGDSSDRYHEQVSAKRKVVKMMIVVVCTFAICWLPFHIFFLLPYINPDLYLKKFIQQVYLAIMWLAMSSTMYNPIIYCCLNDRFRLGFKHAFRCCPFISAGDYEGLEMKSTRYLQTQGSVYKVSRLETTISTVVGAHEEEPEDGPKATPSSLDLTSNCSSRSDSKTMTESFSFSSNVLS
Experimental: Radioligand receptor binding inhibitory activity (Binding inhibitory activity using receptor from human lymphoblast cells (IM-9))
The method of M. A. Cascieri et al., “Molecular Pharmacology 42, p. 458 (1992)” was modified and used. The receptors were prepared from human lymphoblast cells (IM-9). IM-9 cells (2×10^5 cells/mL) were incubated for 3 days (one liter), which were then subjected to centrifuge for 5 min. at 500×G to obtain cell pellets. The obtained pellets were washed once with phosphate buffer (Flow Laboratories, CAT. No. 28-103-05), which were then homogenized using Polytron homogenizer (“Kinematika”, Germany) in 30 mL of 50 mM Tris-HCl buffer (pH 7.4) containing 120 mM sodium chloride, 5 mM potassium chloride, 2 μg/mL chymostatin, 40 μg/mL bacitracin, 5 μg/mL phosphoramidon, 0.5 mM phenylmethylsulfonyl fluoride, 1 mM ethylenediamine tetra-acetate, which was subjected to centrifuge at 40,000×G for 20 min. The residue was washed twice with 30 mL of the buffer, which was then preserved frozen (−80° C.) as a specimen of the receptors.
The specimen was suspended in a reaction buffer (50 mM Tris-HCl buffer (pH 7.4), 0.02% bovine serum albumin, 1 mM phenylmethylsulfonyl fluoride, 2 μg/mL chymostatin, 40 μg/mL bacitracin and 3 mM manganese chloride) to have protein in the concentration of 0.5 mg/mL of protein and 100 μL portion of the suspension was used in the reaction. After addition of the sample and ^125I-BHSP (0.46 KBq), the reaction was allowed to proceed in 0.2 mL of reaction buffer at 25° C. for 30 min. The amount of nonspecific binding was determined by adding substance P at a final concentration of 2×10^−6 M.
After the reaction, using a cell harvester (290 PHD, Cambridge Technology, Inc, U.S.A.), the reaction solution was filterd through a glass filter (GF/B, Whatman, U.S.A.), which was immersed in 0.1% polyethyleneimine for 24 hrs. and dried. After washing three times with 250 μL of 50 mM Tris-HCl buffer (pH 7.4) containing 0.02% bovine serum albumin, the radioactivity remaining on the filter was determined with a gamma counter.
The antagonistic activity of each compound obtained in Examples was determined in terms of the concentration necessary to cause 50% inhibition (IC50 value) under the above-described conditions, and the results were shown in Table 9.
The radio ligand means substance P labeled with [^125I].

[2] = test system: urethane anesthetized male guinea pigs; experiment: Bladder capacity increasing action in urethane anesthetized guinea pigs; format: in vivo, guinea pig; conditions: for changes in bladder capacity (vs. before administration, %) / changes in voiding pressure (vs. before administration, %): mean ± standard error; for effect on bladder capacity (in words) / effect on voiding pressure (in words): intravenous, summary of Table 10
Description: Bladder Capacity Increasing Activity of Tachykinin Receptor Antagonist, Oxybutynin and Tolterodine (Bladder Capacity Increasing Action in Urethane Anesthetized Guinea Pigs)
A urinary frequency/urinary incontinence suppressing effect of a substance having antagonistic action for tachykinin receptors was shown in terms of the ability to increase bladder capacity in urethane anesthetized male guinea pigs and compared with that of oxybutynin and tolterodine, which are therapeutic drugs for overactive bladder. Using male guinea pig under anesthesia, after emptying the bladder by suction, saline was infused into the bladder at a constant rate (0.3 mL/min.) until voiding. This procedure was repeated to confirm stable bladder capacity (amount of saline injected before induction of voiding). After confirming a stable response, a compound dissolved in DMSO was intravenously administered and the action was measured. Changes in the bladder capacity and voiding pressure after drug administration were measured.

IC50 [1]: 62 pM
SMILES: COc1ccc(-n2nnnc2C(F)(F)F)cc1CN[C@H]1CCN(C(=O)C(O)NC(C)=O)C[C@H]1c1ccccc1 (single isomer, unassigned) [Example 13]

IC50 [1]: 21 pM
SMILES: COc1ccc(-n2nnnc2C(F)(F)F)cc1CN[C@H]1CCN(C(=O)C2CCN(S(C)(=O)=O)CC2)C[C@H]1c1ccccc1 [Example 11, (3R,4S)-N-{2-methoxy-5-[5-(trifluoromethyl)-1H-tetrazol-1-yl]benzyl}-1-{[1-(methylsulfonyl)piperidin-4-yl]carbonyl}-3-phenylpiperidine-4-amine monohydrochloride]

IC50 [1]: 12 pM
SMILES: CCC(=O)NCC(=O)N1CC[C@H](NCc2cc(-n3nnnc3C(F)(F)F)ccc2OC)[C@H](c2ccccc2)C1 [Example 9, N-{2-[(3R,4S)-4-({2-methoxy-5-[5-(trifluoromethyl)-1H-tetrazol-1-yl]benzyl}amino)-3-phenylpiperidin-1-yl]-2-oxoethyl}propanamide monohydrochloride]

IC50 [1]: 26 pM
SMILES: COc1ccc(-n2nnnc2C(F)(F)F)cc1CN[C@H]1CCN(C(C)=O)C[C@H]1c1ccccc1 [Example 6, (3R,4S)-1-acetyl-N-{2-methoxy-5-[5-(trifluoromethyl)-1H-tetrazol-1-yl]benzyl}-3-phenylpiperidine-4-amine monohydrochloride]

IC50 [1]: 16 pM
SMILES: COc1ccc(-n2nnnc2C(F)(F)F)cc1CN[C@H]1CCN(C(=O)C2CCNCC2)C[C@H]1c1ccccc1 [Example 10, (3R,4S)-N-(2-methoxy-5-[5-(trifluoromethyl)-1H-tetrazol-1-yl]benzyl)-3-phenyl-1-(piperidin-4-ylcarbonyl)piperidine-4-amine dihydrochloride]

IC50 [1]: 22 pM
SMILES: COc1ccc(-n2nnnc2C(F)(F)F)cc1CN[C@H]1CCN(C(=O)CS(C)(=O)=O)C[C@H]1c1ccccc1 [Example 8, (3R,4S)-N-{2-methoxy-5-[5-(trifluoromethyl)-1H-tetrazol-1-yl]benzyl}-1-[(methylsulfonyl)acetyl]-3-phenylpiperidine-4-amine monohydrochloride]

The remaining lines, values behind:

SMILES: COc1ccc(-n2nnnc2C(F)(F)F)cc1CN[C@H]1CCN(C(=O)C(O)NC(C)=O)C[C@H]1c1ccccc1 (single isomer, unassigned) [Example 12]
IC50 [1]: 16 pM

SMILES: Cc1ccc(O)c([C@H](CCN(C(C)C)C(C)C)c2ccccc2)c1 [tolterodine]
changes in bladder capacity (vs. before administration, %) ([2]; dose 1 mg/kg intravenously): −3.4 ± 4.4%
changes in voiding pressure (vs. before administration, %) ([2]; dose 1 mg/kg intravenously): 0.1 ± 5.7%
changes in bladder capacity (vs. before administration, %) ([2]; dose 3 mg/kg intravenously): 14.8 ± 7.6%
changes in voiding pressure (vs. before administration, %) ([2]; dose 3 mg/kg intravenously): −6.7 ± 6.5 %
changes in bladder capacity (vs. before administration, %) ([2]; dose 10 mg/kg intravenously): 31.7 ± 9.1 %
changes in voiding pressure (vs. before administration, %) ([2]; dose 10 mg/kg intravenously): −15.5 ± 4.6 %
effect on bladder capacity (in words) [2]: significantly increased the bladder capacity
effect on voiding pressure (in words) [2]: voiding pressure lowering action of tolterodine was significant

SMILES: CCN(CC)CC#CCOC(=O)C(O)(c1ccccc1)C1CCCCC1 (centres unmarked) [oxybutynin]
changes in bladder capacity (vs. before administration, %) ([2]; dose 0.1 mg/kg intravenously): 1.8 ± 7.0%
changes in voiding pressure (vs. before administration, %) ([2]; dose 0.1 mg/kg intravenously): 4.3 ± 7.5%
changes in bladder capacity (vs. before administration, %) ([2]; dose 0.3 mg/kg intravenously): 19.3 ± 5.1 %
changes in voiding pressure (vs. before administration, %) ([2]; dose 0.3 mg/kg intravenously): −11.6 ± 5.4%
changes in bladder capacity (vs. before administration, %) ([2]; dose 1 mg/kg intravenously): 43.6 ± 7.7 %
changes in voiding pressure (vs. before administration, %) ([2]; dose 1 mg/kg intravenously): −12.1 ± 8.8%
changes in bladder capacity (vs. before administration, %) ([2]; dose 3 mg/kg intravenously): 36.8 ± 6.6 %
changes in voiding pressure (vs. before administration, %) ([2]; dose 3 mg/kg intravenously): −6.0 ± 5.6%
effect on bladder capacity (in words) [2]: significantly increased the bladder capacity
effect on voiding pressure (in words) [2]: showed lower voiding pressure

SMILES: COc1ccc(-n2nnnc2C(F)(F)F)cc1CN[C@H]1CCN(C(=O)CNC=O)C[C@H]1c1ccccc1 [Example 5, {2-[(3R,4S)-4-({2-methoxy-5-[5-(trifluoromethyl)-1H-tetrazol-1-yl]benzyl}amino)-3-phenylpiperidin-1-yl]-2-oxoethyl}formamide]
IC50 [1]: 17 pM

SMILES: COc1ccc(-n2nnnc2C(F)(F)F)cc1CN[C@H]1CCN(C(=O)CN2C(=O)CCC2=O)C[C@H]1c1ccccc1 [Example 7, 1-{2-[(3R,4S)-4-({2-methoxy-5-[5-(trifluoromethyl)-1H-tetrazol-1-yl]benzyl}amino)-3-phenylpiperidin-1-yl]-2-oxoethyl}pyrrolidine-2,5-dione monohydrochloride]
IC50 [1]: 15 pM

SMILES: COc1ccc(-n2nnnc2C(F)(F)F)cc1CN[C@H]1CCN(C(=O)CNC(C)=O)C[C@H]1c1ccccc1 [Example 20, N-{2-[(3R,4S)-4-({2-methoxy-5-[5-(trifluoromethyl)-1H-tetrazol-1-yl]benzyl}amino)-3-phenylpiperidin-1-yl]-2-oxoethyl}acetamide]
changes in bladder capacity (vs. before administration, %) ([2]; dose 0.01 mg/kg intravenously): 5.8 ± 11.1%
changes in voiding pressure (vs. before administration, %) ([2]; dose 0.01 mg/kg intravenously): 10.1 ± 8.4%
changes in bladder capacity (vs. before administration, %) ([2]; dose 0.03 mg/kg intravenously): 3.0 ± 8.2%
changes in voiding pressure (vs. before administration, %) ([2]; dose 0.03 mg/kg intravenously): 18.5 ± 18.5%
changes in bladder capacity (vs. before administration, %) ([2]; dose 0.1 mg/kg intravenously): 42.9 ± 6.0 %
changes in voiding pressure (vs. before administration, %) ([2]; dose 0.1 mg/kg intravenously): 3.0 ± 8.0%
changes in bladder capacity (vs. before administration, %) ([2]; dose 0.3 mg/kg intravenously): 71.2 ± 25.2 %
changes in voiding pressure (vs. before administration, %) ([2]; dose 0.3 mg/kg intravenously): 4.9 ± 11.0%
effect on bladder capacity (in words) [2]: increased the bladder capacity in a dose-dependent manner
effect on voiding pressure (in words) [2]: without affecting the voiding pressure
IC50 [1]: 17 pM
